Measurements taken from PubChem BioAssay (NCI).
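Results reflect a 48-hour exposure of cells in 96-well plates to compound at five concentrations. GI50: concentration for 50% inhibition of growth. TGI: concentration producing complete growth inhibition.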

Tests used:
Assay in all cases: NCI anticancer screen, dose series, 48 h
NCI/ADR-RES ovarian = system: NCI/ADR-RES ovarian
A498 renal = system: A498 renal
HS 578T breast = system: HS 578T breast
SN12C renal = system: SN12C renal
OVCAR-5 ovarian = system: OVCAR-5 ovarian
RXF 393 renal = system: RXF 393 renal
SK-MEL-5 melanoma = system: SK-MEL-5 melanoma
SF-268 CNS = system: SF-268 CNS
SF-295 CNS = system: SF-295 CNS
HOP-92 NSCLC = system: HOP-92 NSCLC
T-47D breast = system: T-47D breast
NCI-H23 lung = system: NCI-H23 lung
ACHN renal = system: ACHN renal
U251 CNS = system: U251 CNS
SK-MEL-2 melanoma = system: SK-MEL-2 melanoma
COLO 205 colon = system: COLO 205 colon
OVCAR-3 ovarian = system: OVCAR-3 ovarian
IGROV1 ovarian = system: IGROV1 ovarian
MALME-3M melanoma = system: MALME-3M melanoma
SK-MEL-28 melanoma = system: SK-MEL-28 melanoma
MCF7 breast = system: MCF7 breast
HOP-62 NSCLC = system: HOP-62 NSCLC
NCI-H226 lung = system: NCI-H226 lung
EKVX NSCLC = system: EKVX NSCLC
SNB-75 CNS = system: SNB-75 CNS
A549 NSCLC = system: A549 NSCLC
SW-620 colon = system: SW-620 colon
M14 melanoma = system: M14 melanoma
UACC-257 melanoma = system: UACC-257 melanoma
DU-145 prostate = system: DU-145 prostate
HCT-116 colon = system: HCT-116 colon
NCI-H460 lung = system: NCI-H460 lung
RPMI-8226 leukemia = system: RPMI-8226 leukemia
HL-60(TB) leukemia = system: HL-60(TB) leukemia
MDA-MB-231 breast = system: MDA-MB-231 breast
LOX IMVI melanoma = system: LOX IMVI melanoma
UO-31 renal = system: UO-31 renal
MOLT-4 leukemia = system: MOLT-4 leukemia
NCI-H522 lung = system: NCI-H522 lung
HCT-15 colon = system: HCT-15 colon
786-0 renal = system: 786-0 renal
KM12 colon = system: KM12 colon
CAKI-1 renal = system: CAKI-1 renal
OVCAR-4 ovarian = system: OVCAR-4 ovarian
MDA-MB-435 = system: MDA-MB-435
HCC-2998 colon = system: HCC-2998 colon
UACC-62 melanoma = system: UACC-62 melanoma
BT-549 breast = system: BT-549 breast
K-562 leukemia = system: K-562 leukemia
HT29 colon = system: HT29 colon
TK-10 renal = system: TK-10 renal
SF-539 CNS = system: SF-539 CNS
PC-3 prostate = system: PC-3 prostate
SNB-19 CNS = system: SNB-19 CNS
SK-OV-3 ovarian = system: SK-OV-3 ovarian
CCRF-CEM leukemia = system: CCRF-CEM leukemia

Question: For `COc1cc(F)c(/C=C/c2cc(/C=C/c3cc(OC)c(OC)cc3F)n(-c3cc(F)cc(F)c3)n2)cc1OC`, which GI50 (NCI/ADR-RES ovarian) is on record?
Answer: 2.23 µM

Question: What about the TGI (NCI/ADR-RES ovarian) of the same molecule?
Answer: 5.65 µM

Question: What about the GI50 (A498 renal) of the same molecule?
Answer: 14.5 µM

Question: And the TGI (A498 renal)?
Answer: 28.8 µM

Question: What about the GI50 (HS 578T breast) of the same molecule?
Answer: 4.04 µM

Question: And the TGI (HS 578T breast)?
Answer: 18.9 µM

Question: What about the GI50 (SN12C renal) of the same molecule?
Answer: 2.04 µM

Question: What about the TGI (SN12C renal) of the same molecule?
Answer: 4.42 µM

Question: And the GI50 (OVCAR-5 ovarian)?
Answer: 2.96 µM

Question: What about the TGI (OVCAR-5 ovarian) of the same molecule?
Answer: 10.3 µM

Question: And the GI50 (RXF 393 renal)?
Answer: 5.07 µM

Question: And the TGI (RXF 393 renal)?
Answer: 18.4 µM

Question: And the GI50 (SK-MEL-5 melanoma)?
Answer: 2.84 µM

Question: What about the TGI (SK-MEL-5 melanoma) of the same molecule?
Answer: 9.38 µM

Question: What about the GI50 (SF-268 CNS) of the same molecule?
Answer: 3.15 µM

Question: What about the TGI (SF-268 CNS) of the same molecule?
Answer: 13.6 µM

Question: And the GI50 (SF-295 CNS)?
Answer: 2.97 µM

Question: What about the TGI (SF-295 CNS) of the same molecule?
Answer: 11.4 µM

Question: What about the GI50 (HOP-92 NSCLC) of the same molecule?
Answer: 6 µM

Question: And the TGI (HOP-92 NSCLC)?
Answer: 21.5 µM

Question: What about the GI50 (T-47D breast) of the same molecule?
Answer: 3.46 µM

Question: And the TGI (T-47D breast)?
Answer: 20.7 µM

Question: And the GI50 (NCI-H23 lung)?
Answer: 2.53 µM

Question: What about the TGI (NCI-H23 lung) of the same molecule?
Answer: 7.15 µM

Question: And the GI50 (ACHN renal)?
Answer: 18.1 µM

Question: What about the TGI (ACHN renal) of the same molecule?
Answer: 46.2 µM

Question: What about the GI50 (U251 CNS) of the same molecule?
Answer: 1.69 µM

Question: And the TGI (U251 CNS)?
Answer: 3.15 µM

Question: And the GI50 (SK-MEL-2 melanoma)?
Answer: 3.08 µM

Question: What about the TGI (SK-MEL-2 melanoma) of the same molecule?
Answer: 10.3 µM

Question: And the GI50 (COLO 205 colon)?
Answer: 3.95 µM

Question: What about the TGI (COLO 205 colon) of the same molecule?
Answer: 26.8 µM

Question: And the GI50 (OVCAR-3 ovarian)?
Answer: 2.47 µM

Question: What about the TGI (OVCAR-3 ovarian) of the same molecule?
Answer: 6.37 µM

Question: What about the GI50 (IGROV1 ovarian) of the same molecule?
Answer: 4.73 µM

Question: And the TGI (IGROV1 ovarian)?
Answer: 21.1 µM

Question: What about the GI50 (MALME-3M melanoma) of the same molecule?
Answer: 1.78 µM

Question: And the TGI (MALME-3M melanoma)?
Answer: 4.06 µM

Question: And the GI50 (SK-MEL-28 melanoma)?
Answer: 2.36 µM

Question: And the TGI (SK-MEL-28 melanoma)?
Answer: 5.75 µM

Question: And the GI50 (MCF7 breast)?
Answer: 2.99 µM

Question: And the TGI (MCF7 breast)?
Answer: 17.3 µM

Question: What about the GI50 (HOP-62 NSCLC) of the same molecule?
Answer: 4.01 µM

Question: What about the TGI (HOP-62 NSCLC) of the same molecule?
Answer: 17.1 µM

Question: And the GI50 (NCI-H226 lung)?
Answer: 14.8 µM

Question: What about the TGI (NCI-H226 lung) of the same molecule?
Answer: 43.6 µM

Question: What about the GI50 (EKVX NSCLC) of the same molecule?
Answer: 4.94 µM

Question: And the TGI (EKVX NSCLC)?
Answer: 55.9 µM

Question: And the GI50 (SNB-75 CNS)?
Answer: 2.42 µM

Question: What about the TGI (SNB-75 CNS) of the same molecule?
Answer: 14.4 µM

Question: And the GI50 (A549 NSCLC)?
Answer: 3.29 µM

Question: What about the TGI (A549 NSCLC) of the same molecule?
Answer: 11.4 µM

Question: What about the GI50 (SW-620 colon) of the same molecule?
Answer: 2.44 µM

Question: What about the TGI (SW-620 colon) of the same molecule?
Answer: 5.86 µM

Question: What about the GI50 (M14 melanoma) of the same molecule?
Answer: 1.74 µM

Question: What about the TGI (M14 melanoma) of the same molecule?
Answer: 3.53 µM

Question: And the GI50 (UACC-257 melanoma)?
Answer: 1.48 µM

Question: And the TGI (UACC-257 melanoma)?
Answer: 3.28 µM

Question: What about the GI50 (DU-145 prostate) of the same molecule?
Answer: 3.68 µM

Question: And the TGI (DU-145 prostate)?
Answer: 18.1 µM

Question: And the GI50 (HCT-116 colon)?
Answer: 3.13 µM

Question: What about the TGI (HCT-116 colon) of the same molecule?
Answer: 13.1 µM

Question: What about the GI50 (NCI-H460 lung) of the same molecule?
Answer: 3.43 µM

Question: What about the TGI (NCI-H460 lung) of the same molecule?
Answer: 12.2 µM

Question: And the GI50 (RPMI-8226 leukemia)?
Answer: 3.75 µM

Question: What about the TGI (RPMI-8226 leukemia) of the same molecule?
Answer: 41.4 µM

Question: What about the GI50 (HL-60(TB) leukemia) of the same molecule?
Answer: > 100 µM

Question: And the TGI (HL-60(TB) leukemia)?
Answer: > 100 µM

Question: And the GI50 (MDA-MB-231 breast)?
Answer: 2.62 µM

Question: And the TGI (MDA-MB-231 breast)?
Answer: 8.86 µM

Question: What about the GI50 (LOX IMVI melanoma) of the same molecule?
Answer: 2.62 µM

Question: And the TGI (LOX IMVI melanoma)?
Answer: 8.3 µM

Question: And the GI50 (UO-31 renal)?
Answer: 14.1 µM

Question: What about the TGI (UO-31 renal) of the same molecule?
Answer: 34.4 µM

Question: What about the GI50 (MOLT-4 leukemia) of the same molecule?
Answer: 6.64 µM

Question: And the TGI (MOLT-4 leukemia)?
Answer: > 100 µM

Question: What about the GI50 (NCI-H522 lung) of the same molecule?
Answer: 1.91 µM

Question: What about the TGI (NCI-H522 lung) of the same molecule?
Answer: 5.47 µM

Question: What about the GI50 (HCT-15 colon) of the same molecule?
Answer: 2.84 µM

Question: And the TGI (HCT-15 colon)?
Answer: 9.05 µM

Question: And the GI50 (786-0 renal)?
Answer: 1.63 µM

Question: What about the TGI (786-0 renal) of the same molecule?
Answer: 3.22 µM

Question: What about the GI50 (KM12 colon) of the same molecule?
Answer: 3.3 µM

Question: What about the TGI (KM12 colon) of the same molecule?
Answer: 12.8 µM

Question: And the GI50 (CAKI-1 renal)?
Answer: 12.8 µM

Question: And the TGI (CAKI-1 renal)?
Answer: 34.4 µM

Question: What about the GI50 (OVCAR-4 ovarian) of the same molecule?
Answer: 1.97 µM

Question: And the TGI (OVCAR-4 ovarian)?
Answer: 5.75 µM

Question: What about the GI50 (MDA-MB-435) of the same molecule?
Answer: 2.03 µM

Question: And the TGI (MDA-MB-435)?
Answer: 4.63 µM

Question: And the GI50 (HCC-2998 colon)?
Answer: 6.18 µM

Question: And the TGI (HCC-2998 colon)?
Answer: 47.9 µM

Question: What about the GI50 (UACC-62 melanoma) of the same molecule?
Answer: 1.65 µM

Question: And the TGI (UACC-62 melanoma)?
Answer: 3.32 µM

Question: And the GI50 (BT-549 breast)?
Answer: 2.35 µM

Question: What about the TGI (BT-549 breast) of the same molecule?
Answer: 7.51 µM

Question: What about the GI50 (K-562 leukemia) of the same molecule?
Answer: 3.08 µM

Question: And the TGI (K-562 leukemia)?
Answer: > 100 µM

Question: And the GI50 (HT29 colon)?
Answer: 2.27 µM

Question: And the TGI (HT29 colon)?
Answer: 6.81 µM

Question: And the GI50 (TK-10 renal)?
Answer: 3.63 µM

Question: And the TGI (TK-10 renal)?
Answer: 28.3 µM

Question: And the GI50 (SF-539 CNS)?
Answer: 2.7 µM

Question: And the TGI (SF-539 CNS)?
Answer: 9.17 µM

Question: What about the GI50 (PC-3 prostate) of the same molecule?
Answer: 2.66 µM

Question: What about the TGI (PC-3 prostate) of the same molecule?
Answer: 8.17 µM

Question: What about the GI50 (SNB-19 CNS) of the same molecule?
Answer: 2.37 µM

Question: What about the TGI (SNB-19 CNS) of the same molecule?
Answer: 5.52 µM

Question: And the GI50 (SK-OV-3 ovarian)?
Answer: 19.6 µM

Question: And the TGI (SK-OV-3 ovarian)?
Answer: 41.9 µM

Question: And the GI50 (CCRF-CEM leukemia)?
Answer: 37.5 µM

Question: What about the TGI (CCRF-CEM leukemia) of the same molecule?
Answer: > 100 µM
